RP-LC retention time data for 58 molecules are collected here from the METLIN SMRT retention time set (Domingo-Almenara et al. 2019).

Structures are written as SMILES.

The data set in a line: gradient 5% acetonitrile 3 min, to 50% in 2 min, to 85% in 15 min, held 3 min, 100 µL/min. Conditions: column: Zorbax Extend-C18 2.1 x 50 mm; eluents: water / acetonitrile, 0.1% formic acid. An outline of the steps: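 Values are retention times taken from adduct peaks that software picked and an analyst inspected. The pure standards were run as mixtures of ~100 molecules on HPLC linked to a quadrupole time-of-flight mass spectrometer, in positive and negative ionization mode. A Zorbax Extend-C18 column (2.1 × 50 mm, 1.8 μm) was used at 100 μL/min with water and acetonitrile, each including 0.1% formic acid.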
Molecule `CC(Cc1ccco1)NC(=O)CC1CCN(C(=O)c2ccc3nc(-c4ccccc4)oc3c2)CC1` (stereo not drawn) registered an RP-LC retention time of 830 s.

Turning to `Cc1ccc(NC(=O)c2csc(-c3ccc(N4CCCC4)nc3)n2)c(C)c1`, the RP-LC retention time stood at 813 s.

Molecule `CCCc1ccc(S(=O)(=O)N2CCC(n3c(-c4ccoc4)nc4cccnc43)C2)cc1` (stereo not drawn) registered an RP-LC retention time of 1020 s.

For the molecule `c1ccc2c(c1)OCC(c1nc(-c3ccc(-n4cccn4)nc3)no1)O2` (stereo not drawn), the RP-LC retention time worked out at 1090 s.

In the case of `CCOC(=O)C1CCCN(C(=O)C2CCc3nc(N(CC)CC)ncc3C2)C1` (stereo not drawn), the RP-LC retention time is 620 s.

As to `Cc1cc(C)c(C(=O)N2CCC(CC(=O)NCCCN3CCCCCC3)CC2)[nH]1`, the RP-LC retention time turned out to be 594 s.

Turning to `CCc1ccc(C2=C(C)C(N3CCCN(C(=O)C4CCCO4)CC3)=NS2(=O)=O)cc1` (stereo not drawn), the RP-LC retention time is 778 s.

`COc1ccc(NC(=O)Cn2nc3cc(-c4ccc(OC)cc4)nc(C)n3c2=O)cc1` showed an RP-LC retention time of 872 s.

Molecule `Cc1ccc(Nc2nc(C(=O)NC3CCS(=O)(=O)C3)nc3ccccc23)cc1` (stereo not drawn) returned an RP-LC retention time of 685 s.

With `Cc1ccc(OCc2nn3c(COc4ccc(F)cc4)nnc3s2)cc1C`, the RP-LC retention time stood at 1100 s.

In turn, `Fc1ccc(Nc2nc(N3CCOCC3)nc3c2cnn3-c2ccccc2)cc1` returned an RP-LC retention time of 1170 s.

`Cn1ncc2c3ccccc3n(CC(=O)NCCc3cnc[nH]3)c2c1=O` yielded an RP-LC retention time of 583 s.

As for `COc1ccc(F)cc1S(=O)(=O)N1C[C@@H](F)C[C@H]1C(=O)N1CCCCC1`, the RP-LC retention time amounted to 769 s.

In turn, `CCc1c(C(=O)O)nnn1-c1ccc(Cl)c(C)c1` came in with an RP-LC retention time of 809 s.

Molecule `CCOc1c(C)cc(S(=O)(=O)NCC(C)(O)COC)cc1C` (stereo not drawn) had an RP-LC retention time of 752 s.

Molecule `Cc1cc(S(=O)(=O)N2CCC(n3cnnc3C)CC2)ccc1Cl` returned an RP-LC retention time of 739 s.

Molecule `COc1ccccc1-c1nc(Cn2c(=O)c3c(C)cc(C)nc3n(C)c2=O)c(C)o1` had an RP-LC retention time of 1070 s.

In the case of `O=C(Cc1ccc(F)cc1)NCC1CC(=O)N(Cc2ccc(F)cc2)C1` (stereo not drawn), the RP-LC retention time was found to be 871 s.

Molecule `Cn1c(=O)n(CC(=O)Nc2ccccc2Cl)c(=O)c2cnc(-c3ccccc3)nc21` displayed an RP-LC retention time of 1020 s.

Regarding `O=S(=O)(CCOc1ccccc1)NCc1ccccc1`, the RP-LC retention time was determined as 674 s.

For the molecule `CCc1onc(C)c1C1CCCN1C(=O)Nc1ccc(OC)c(OC)c1` (stereo not drawn), the RP-LC retention time came out at 796 s.

The molecule `Cc1cc(C)cc(NC(=O)N2CCC(c3nc(C(=O)N(C)C)c(C)o3)CC2)c1` yielded an RP-LC retention time of 730 s.

As for `COc1ccc(NC(=O)c2cc(C)n3nc(-c4ccco4)cc3n2)cc1OC`, the RP-LC retention time worked out at 933 s.

Consider `O=C(CC1CCCCC1)N1CCC(c2ccncc2)CC1`, for which the RP-LC retention time turned out to be 622 s.

`CC(C)CNC(=O)N1CCN(c2nc3ccccc3n(Cc3ccccc3)c2=O)CC1` registered an RP-LC retention time of 986 s.

Consider `COc1ccc(Cc2nc(-c3ccc4oc(C)nc4c3)no2)c(Cl)c1`, for which the RP-LC retention time came to 1060 s.

Consider `CCCn1c(=O)c2cc(C(=O)Nc3cc(Cl)ccc3F)nn2c2ccccc21`, for which the RP-LC retention time is 1220 s.

The molecule `COc1ccc(CCNc2nc3ccncc3n(C(C)C)c2=O)cc1OC` showed an RP-LC retention time of 631 s.

On to `CCc1ccc(CN2C(=O)c3c(C(=O)OC)ncn3CC2(C)C(=O)NC2CCCC2)cc1` (stereo not drawn), for which the RP-LC retention time was 816 s.

For `Cc1ccc(C)c(NC(=O)Cn2nc3c(N4CCCCCC4)nccn3c2=O)c1`, the RP-LC retention time was 730 s.

`COc1ccc(OCc2nc(-c3ccc(N4CCCCC4)nc3)no2)cc1` came in with an RP-LC retention time of 1010 s.

The molecule `COc1nc2ccccc2nc1N1CCCC(C(=O)Nc2cccc(Br)c2)C1` (stereo not drawn) yielded an RP-LC retention time of 1300 s.

Turning to `Cc1cccc(NC(=O)C23CCC=C2N(C2CCCC2)C(=O)CC3)c1` (stereo not drawn), the RP-LC retention time stood at 952 s.

For the molecule `COc1ccc(C(C)NC(=O)C2CCN(C(=O)c3ncn4c3COC(c3ccccc3)C4)CC2)cc1` (stereo not drawn), the RP-LC retention time was determined as 754 s.

`CCOc1ccc(-c2nc(-c3cccc(-c4ccn[nH]4)c3)no2)cc1` displayed an RP-LC retention time of 999 s.

Turning to `Cc1cc(C)n(-c2ccc(=O)n(C(C)C(=O)NCCc3csc(-c4ccccc4)n3)n2)n1` (stereo not drawn), the RP-LC retention time stood at 780 s.

Molecule `O=C(NCc1csc(-c2ccccc2)n1)[C@H]1CCCN1C(=O)c1ccc(Br)cc1` yielded an RP-LC retention time of 866 s.

On to `Cc1cc2cc(CNC(=O)NC3CC(=O)N(c4ccccc4)C3)ccc2[nH]1` (stereo not drawn), for which the RP-LC retention time was 668 s.

`Cc1ccc(NC(=O)Cn2nc3c(Oc4cccc(F)c4)nccn3c2=O)cc1` yielded an RP-LC retention time of 880 s.

On to `N#Cc1cccc(NC(=O)CN2C(=O)NC(c3ccc(Cl)cc3)C3=C2COC3=O)c1` (stereo not drawn), for which the RP-LC retention time was determined as 763 s.

Consider `COc1ccc(-c2ncccc2CNS(=O)(=O)c2ccc(Br)cc2)cc1`, for which the RP-LC retention time came out at 733 s.

As for `Cc1ccc2c(c1)OCC(=O)N2Cc1nc(-c2cccc(C(F)(F)F)c2)no1`, the RP-LC retention time is 919 s.

In turn, `CC(CC(=O)Nc1ccccc1Cl)S(=O)(=O)c1ccc2c(c1)NC(=O)CCS2` (stereo not drawn) yielded an RP-LC retention time of 761 s.

`CCOC(=O)C1=C(CN2CCCC(c3ccccc3)C2)NC(=O)NC1c1cccc(OC)c1OC` (stereo not drawn) showed an RP-LC retention time of 695 s.

The molecule `Cc1nc(-c2ccc3c(c2)n(CC(=O)N2c4ccccc4CC2C)c(=O)n3C(C)C)no1` (stereo not drawn) had an RP-LC retention time of 989 s.

Consider `CCOc1cccc2sc(N(CCN(C)C)C(=O)c3ccco3)nc12`, for which the RP-LC retention time is 710 s.

As for `Cn1ccc(CN2CCN(Cc3ccccc3F)CC2)cc1=O`, the RP-LC retention time was found to be 554 s.

The molecule `CCc1sc(NC(=O)c2cccc(NC(=O)C(CC)CC)c2)nc1-c1ccccc1` showed an RP-LC retention time of 1170 s.

In the case of `CCCN1C(=O)c2c(C(=O)NCCCc3ccccc3)ncn2CC1(C)C(=O)NC1CCCC1` (stereo not drawn), the RP-LC retention time was 867 s.

In the case of `Cc1ccc2c(c1)N(c1ccc(N(C)C)cc1)C=C(C(=O)N1CCCC1)S2(=O)=O`, the RP-LC retention time was 874 s.

`Cn1c(N2CCN(C(=O)c3cc4ccccc4[nH]3)CC2)cc(=O)n(C)c1=O` came in with an RP-LC retention time of 691 s.

`Cc1sc2ncnc(N3CCCC(C)C3)c2c1C(=O)Nc1ccc(Cl)cc1F` (stereo not drawn): the RP-LC retention time stood at 1330 s.

`Cc1ccc(C)c(NC(=O)C2CCCN(c3nc4c(s3)c(C)nn4-c3cccc(F)c3)C2)c1` (stereo not drawn): the RP-LC retention time was determined as 1280 s.

Turning to `CSc1ccccc1NC(=O)Cc1cc(-c2ccc(F)cc2)on1`, the RP-LC retention time came to 919 s.

Molecule `CC1(c2ccccc2)O[C@@H]2C[C@H]3[C@@H]4CCC5=CC(=O)C=C[C@]5(C)[C@@]4(F)[C@@H](O)C[C@]3(C)[C@]2(C(=O)CO)O1` (stereo partly drawn) had an RP-LC retention time of 870 s.

In turn, `CN(C(=O)Cn1nc2n(c1=O)CCCC2)c1ccccc1` returned an RP-LC retention time of 632 s.

`Clc1ccccc1-c1noc(Cc2nnc(-c3cccc(Br)c3)o2)n1` had an RP-LC retention time of 1100 s.

Molecule `CCn1c(=O)c2cc(C(=O)Nc3ccc4c(c3)CCC4)nn2c2ccccc21` came in with an RP-LC retention time of 1090 s.
